How the values were obtained:
[1] = system: subjects with advanced hematologic malignancies undergoing myeloablative allogeneic hematopoietic cell transplantation; experiment: Chronic GVHD, per NIH consensus criteria; format: in vivo, human; conditions: Example 3, serum tacrolimus trough level higher vs lower than 4 ng/ml
Description: Chronic GVHD was diagnosed, staged, and graded per the International NIH Chronic GVHD Diagnosis and Staging Consensus Working Group criteria.
Chronic GVHD: As chronic GVHD (cGVHD) is associated with significant morbidity and with decreased survival, reducing the severity or incidence of cGVHD has the potential to greatly benefit graft recipients. Chronic GVHD was diagnosed per 2014 International NIH Chronic GVHD Diagnosis and Staging Consensus Working Group criteria.
Analysis was conducted using a cutoff of 365 days (i.e., cGVHD events that occur after Day ^+365 were not included). […] Additionally, several subjects in the study group have undergone greater than 2.5 years of follow-up with no cGVHD symptoms reported.

[2] = system: subjects with advanced hematologic malignancies undergoing myeloablative allogeneic hematopoietic cell transplantation; experiment: GVHD and relapse-free survival (GRFS); format: in vivo, human; conditions: Example 3, tacrolimus-only relative to sirolimus-only patients
Source text: GVHD and relapse-free survival is a composite readout that can refer to survival without relapse or Grade ≥3 acute or extensive chronic GVHD. At the time of reporting, the percent of GVHD-free and relapse-free survival to one-year post-transplant was 74% for the study group, compared to 34% for the SOC cohort, as shown in FIG. 4F. The difference was statistically significant (p=0.0001 by log-rank test).

[3] = system: subjects with advanced hematologic malignancies undergoing myeloablative allogeneic hematopoietic cell transplantation; experiment: Overall survival; format: in vivo, human; conditions: Example 3, tacrolimus-only relative to sirolimus-only patients
Source text: Overall survival: OS was defined as the time from the date of transplant to the date of death from any cause or, for surviving patients, to the date of last follow-up. […] The difference was statistically significant (p=0.0242 by log-rank test).

[4] = system: subjects with advanced hematologic malignancies undergoing myeloablative allogeneic hematopoietic cell transplantation; experiment: Disease relapse / relapse-free survival / disease status after therapy; format: in vivo, human; conditions: Example 3, tacrolimus-only relative to sirolimus-only patients
Source text: Incidence of disease relapse: For acute leukemias, relapse was defined as any of the following (MRD^+ alone was insufficient): (i) ≥5% blasts in the bone marrow or peripheral blood; or (ii) Reappearance of pre-transplant cytogenetic abnormality; or (iii) new evidence or redevelopment of extramedullary disease. For MDS, relapse was defined as any of the following: (i) satisfying criteria for evolution into acute leukemia; (ii) reappearance of pre-transplant morphologic abnormalities, detected in bone marrow specimens; or, (iii) reappearance of pre-transplant cytogenetic abnormality in at least one metaphase on each of two separate consecutive examinations at least one month apart, regardless of the number of metaphases analyzed.
Subjects in the study were first evaluated for relapse on day ^+90 post-transplant.

[5] = system: subjects with advanced hematologic malignancies undergoing myeloablative allogeneic hematopoietic cell transplantation; conditions: in vivo
Source text: Acute GVHD was staged and graded per MAGIC Standardization criteria.
Acute GVHD was staged and graded per Mount Sinai Acute GvHD International Consortium (MAGIC) Standardization criteria.

[6] = system: Patients with hematologic malignancies; experiment: Relapse, non-relapse mortality, relapse-free survival, GRFS and overall survival after transplant; format: in vivo, human; conditions: with Orca-T; relapse-free survival through 1 year; FIG. 14
Source text: FIGS. 1A-B illustrate the schematics of the transplant according to the methods described herein (identified as High-Precision Orca-T or Orca-T) and the differences compared to a standard of care (SOC) cohort (identified as Conventional Transplant or SOC).

Row | SMILES | chronic GVHD rates [1] | GRFS rates [2] | overall survival rates [3] | survival (FIG. 7E) [3] | relapse rates [4] | GVHD rates [5] | effect of addition of thiotepa to busulfan-based conditioning regimens on relapse and non-relapse mortality [6]
1 | C=CC[C@@H]1/C=C(\C)C[C@H](C)C[C@H](OC)[C@H]2O[C@@](O)(C(=O)C(=O)N3CCCC[C@H]3C(=O)O[C@H](/C(C)=C/[C@@H]3CC[C@@H](O)[C@H](OC)C3)[C@H](C)[C@@H](O)CC1=O)[C@H](C)C[C@@H]2OC [tacrolimus] | improvements | improved | improved | improved | improved | higher | –
2 | S=P(N1CC1)(N1CC1)N1CC1 [thiotepa] | – | – | – | – | – | – | decreases relapse without increasing non-relapse mortality
